assay: recombinant barcode read abundance after kanamycin selection (control-corrected) (log10(CPM+1)); higher = more efficient recombination; sequences stand for … in AGTGCAGAGAAAATCGGCCAGTTTTCTCTGCCTGCAGTCCGCATGCCGT…AGATTTATGCAGCGGACTGCCTTTCTCCCAAAGTGATAAACCGGACAGTATCATGGACCGGTTTTCCCGGTAATCCGTATTTGCAAGGTTGGTTTCACT; site = the 11-nt target
How it was run: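 This pooled E. coli screen matched targets with IS621 bridge RNA target-binding loops. Plating was done in duplicate on chloramphenicol/ampicillin LB agar as a control and on chloramphenicol/ampicillin/kanamycin plus 0.1 mM IPTG. Recombination efficiency reflects barcode counts at recombinant junctions as counts per million, averaged and control-corrected. The figures are log10(CPM+1).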
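Further: IS621 recombinase and bridge RNA in Escherichia coli cells.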

Sequence	recombinant barcode read abundance (log10)
CTAATATCTTGGGTTCTAACCTGTTGCTA (site CTAATATCTTA)	0.512
CTAATTGCTTGGGTTCTAACCTGTTGCCT (site CCAATTGCTAG)	0.201
CTAATTGCTTGGGTTCTAACCTGTTGCCT (site CTAATTGCTAG)	0.336
CTACAACCTTGGGTTCTAACCTGTTGCTT (site CTACAACCTAA)	1.28
CTACAACCTTGGGTTCTAACCTGTTGCTT (site CTACACCCTAA)	0.0399
CTACAACCTTGGGTTCTAACCTGTTGCTT (site CTACAGCCTAA)	0.109
CTACAACCTTGGGTTCTAACCTGTTGCTT (site CTACATCCTAA)	0
CTACCCTCTTGGGTTCTAACCTGTTGCCT (site CTACCCTCTAG)	2.4
CTACCCTCTTGGGTTCTAACCTGTTGCCT (site TCTAAGACTGC)	0.122
CTACGCACTTGGGTTCTAACCTGTTGCTG (site CTACGAACTCA)	0
CTACGCACTTGGGTTCTAACCTGTTGCTG (site CTACGCACTCA)	1.68
CTACGCACTTGGGTTCTAACCTGTTGCTG (site CTACGGACTCA)	0.112
CTACGCACTTGGGTTCTAACCTGTTGCTG (site CTACGTACTCA)	0.156
CTACGCTCTTGGGTTCTAACCTGTTGCAC (site CTACGATCTGT)	0.145
CTACGCTCTTGGGTTCTAACCTGTTGCAC (site CTACGCTCTGT)	1.78
CTACGCTCTTGGGTTCTAACCTGTTGCAC (site CTACGGTCTGT)	0.0577
CTACGCTCTTGGGTTCTAACCTGTTGCAC (site CTACGTTCTGT)	0.0706
CTACGTACTTGGGTTCTAACCTGTTGCGT (site CTAAGTTCTAC)	0.0986
CTACGTACTTGGGTTCTAACCTGTTGCGT (site CTACGTACTAC)	0.051
CTACGTCCTTGGGTTCTAACCTGTTGCTA (site CTACGTCCTAA)	0.0386
CTACGTCCTTGGGTTCTAACCTGTTGCTA (site CTACGTCCTCA)	0.0856
CTACGTCCTTGGGTTCTAACCTGTTGCTA (site CTACGTCCTGA)	0.425

Sequence	recombinant barcode read abundance (log10)
CTACGTCCTTGGGTTCTAACCTGTTGCTA (site CTACGTCCTTA)	0.795
CTACTAACTTGGGTTCTAACCTGTTGCGT (site CTACTAACTAA)	0.13
CTACTAACTTGGGTTCTAACCTGTTGCGT (site CTACTAACTAC)	1.07
CTACTAACTTGGGTTCTAACCTGTTGCGT (site CTACTAACTAG)	0.339
CTACTAACTTGGGTTCTAACCTGTTGCGT (site CTACTAACTAT)	0.129
CTACTATCTTGGGTTCTAACCTGTTGCGC (site CTACTATCTGC)	0.937
CTACTATCTTGGGTTCTAACCTGTTGCGC (site TATAACACTCG)	0.188
CTACTATCTTGGGTTCTAACCTGTTGCGT (site CTACTATCTAC)	1.58
CTACTATCTTGGGTTCTAACCTGTTGCGT (site TCGAGTGCTCT)	0.143
CTACTTCCTTGGGTTCTAACCTGTTGCGT (site CTACCTCCTAC)	0.215
CTACTTCCTTGGGTTCTAACCTGTTGCGT (site CTACTTCCTAC)	1.69
CTACTTGCTTGGGTTCTAACCTGTTGCAA (site CTAATTGCTTT)	0.364
CTACTTGCTTGGGTTCTAACCTGTTGCAA (site CTACTTGCTTT)	0.326
CTACTTGCTTGGGTTCTAACCTGTTGCAA (site CTAGTTGCTTT)	0.239
CTACTTGCTTGGGTTCTAACCTGTTGCAA (site CTATTTGCTTT)	0.592
CTAGACACTTGGGTTCTAACCTGTTGCCT (site CTAGACACTAG)	0.612
CTAGACACTTGGGTTCTAACCTGTTGCCT (site CTCGACACTAG)	0.0911
CTAGACACTTGGGTTCTAACCTGTTGCCT (site CTGGACACTAG)	0.0451
CTAGACACTTGGGTTCTAACCTGTTGCCT (site CTTGACACTAG)	0.512
CTAGACCCTTGGGTTCTAACCTGTTGCGG (site ACGCGTTCTAT)	0.25
CTAGACCCTTGGGTTCTAACCTGTTGCGG (site CTAGACCCTCC)	2.56
CTAGACGCTTGGGTTCTAACCTGTTGCCT (site CAAGACGCTAG)	1.41

Sequence	recombinant barcode read abundance (log10)
CTAGACGCTTGGGTTCTAACCTGTTGCCT (site CTAGACGCTAG)	0.677
CTAGACTCTTGGGTTCTAACCTGTTGCAT (site CTAGACTCTAT)	2.88
CTAGACTCTTGGGTTCTAACCTGTTGCAT (site CTAGACTCTCT)	1.75
CTAGACTCTTGGGTTCTAACCTGTTGCAT (site CTAGACTCTGT)	0.161
CTAGACTCTTGGGTTCTAACCTGTTGCAT (site CTAGACTCTTT)	0.365
CTAGCGACTTGGGTTCTAACCTGTTGCGG (site CTAACGACTCC)	0.637
CTAGCGACTTGGGTTCTAACCTGTTGCGG (site CTAGCGACTCC)	1.85
CTAGCGTCTTGGGTTCTAACCTGTTGCTT (site CTAGAGTCTAA)	0.115
CTAGCGTCTTGGGTTCTAACCTGTTGCTT (site CTAGCGTCTAA)	0.776
CTAGCTCCTTGGGTTCTAACCTGTTGCAG (site CTAGCGGCTCT)	0.0535
CTAGCTCCTTGGGTTCTAACCTGTTGCAG (site CTAGCTCCTCT)	1.54
CTAGGACCTTGGGTTCTAACCTGTTGCCA (site CTAGGACCTTG)	1.27
CTAGGACCTTGGGTTCTAACCTGTTGCCA (site CTAGGAGCTAG)	0.233
CTAGGAGCTTGGGTTCTAACCTGTTGCTT (site CTAGGAGCTAA)	0.924
CTAGGAGCTTGGGTTCTAACCTGTTGCTT (site CTAGGAGCTCA)	0.211
CTAGGAGCTTGGGTTCTAACCTGTTGCTT (site CTAGGAGCTGA)	0.0912
CTAGGAGCTTGGGTTCTAACCTGTTGCTT (site CTAGGAGCTTA)	0.0974
CTAGGATCTTGGGTTCTAACCTGTTGCAT (site CTAGGATCTAT)	2.45
CTAGGATCTTGGGTTCTAACCTGTTGCAT (site CTAGGATCTTG)	0.301
CTAGGCTCTTGGGTTCTAACCTGTTGCGG (site CTACGCTCTTC)	0.095
CTAGGCTCTTGGGTTCTAACCTGTTGCGG (site CTAGGCTCTCC)	2.32
CTAGGTACTTGGGTTCTAACCTGTTGCTT (site ATAGGTACTAA)	0.0337

Sequence	recombinant barcode read abundance (log10)
CTAGGTACTTGGGTTCTAACCTGTTGCTT (site CTAGGTACTAA)	0.0303
CTAGTAACTTGGGTTCTAACCTGTTGCCA (site ACGCGTGCTCC)	0.0245
CTAGTAACTTGGGTTCTAACCTGTTGCCA (site CTAGTAACTTG)	0.351
CTAGTTACTTGGGTTCTAACCTGTTGCCT (site CTAATTACTAG)	0.0479
CTAGTTACTTGGGTTCTAACCTGTTGCCT (site CTACTTACTAG)	0.363
CTAGTTACTTGGGTTCTAACCTGTTGCCT (site CTAGTTACTAG)	1.11
CTAGTTACTTGGGTTCTAACCTGTTGCCT (site CTATTTACTAG)	0.177
CTATCCTCTTGGGTTCTAACCTGTTGCAT (site CTAACCTCTAT)	0.233
CTATCCTCTTGGGTTCTAACCTGTTGCAT (site CTACCCTCTAT)	1.01
CTATCCTCTTGGGTTCTAACCTGTTGCAT (site CTAGCCTCTAT)	0.537
CTATCCTCTTGGGTTCTAACCTGTTGCAT (site CTATCCTCTAT)	1.06
CTATGACCTTGGGTTCTAACCTGTTGCTG (site CTATGACCTCA)	1.91
CTATGACCTTGGGTTCTAACCTGTTGCTG (site TCGGAGTCTGC)	0.0682
CTATGCCCTTGGGTTCTAACCTGTTGCGA (site CTATGCCCTTA)	0.129
CTATGCCCTTGGGTTCTAACCTGTTGCGA (site CTATGCCCTTC)	2.02
CTATGGACTTGGGTTCTAACCTGTTGCAG (site CTATGGACTAT)	0.391
CTATGGACTTGGGTTCTAACCTGTTGCAG (site CTATGGACTCT)	2.39
CTATGGACTTGGGTTCTAACCTGTTGCAG (site CTATGGACTGT)	0.348
CTATGGACTTGGGTTCTAACCTGTTGCAG (site CTATGGACTTT)	0.0535
CTATGTGCTTGGGTTCTAACCTGTTGCCT (site CTATGTGCTAA)	0.158
